Reference: US20100298141A1, “SUBSTITUTED PYRIDINE N-OXIDE HERBICIDES” (E. I. DU PONT DE NEMOURS AND COMPANY, priority 2007, published 2010)

Experiments:
catchweed bedstraw = test: Test C pre-/postemergence test; type: in vivo, Galium aparine
Summary of the method: (§1)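 Test chemicals were formulated with surfactant in a non-phytotoxic solvent and sprayed both on freshly planted seeds (preemergence) and on 1- to 4-leaf plants of 2–18 cm (postemergence). Flooded-paddy pots received compound directly into 3 cm of standing water, maintained for the test.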

morningglory = test: Test A pre-/postemergence greenhouse test; type: in vivo, Ipomoea spp.; settings: for Plant response rating, Morningglory: 0 to 100 scale where 0 is no effect and 100 is complete control; for Morningglory plant response rating: 0 to 100 scale
Summary of the method: (§2)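 Untreated controls served as the reference for visual injury ratings taken about ten days after spraying. The non-phytotoxic solvent/surfactant formulation was applied preemergence to seeded loam and sand and postemergence to plants two to ten cm high.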

kochia = test: Test C pre-/postemergence test; type: in vivo, Kochia scoparia
Summary of the method: as §1

giant foxtail [1] = test: Test C pre-/postemergence test; type: in vivo, Setaria faberii
Summary of the method: as §1

common ragweed = test: Test C pre-/postemergence test; type: in vivo, Ambrosia elation; settings: preemergence, scale 0 (no effect) to 100 (complete control)
Summary of the method: as §1

lambsquarters = test: Test C pre-/postemergence test; type: in vivo, Chenopodium album
Summary of the method: as §1

wheat [2] = test: Test A pre-/postemergence greenhouse test; type: in vivo, Triticum aestivum; settings: for Wheat plant response rating: 0 to 100 scale
Summary of the method: as §2

wheat [3] = test: Test C pre-/postemergence test; type: in vivo, Triticum aestivum
Summary of the method: as §1

cocklebur = test: Test C pre-/postemergence test; type: in vivo, Xanthium strumarium
Summary of the method: as §1

eastern black nightshade = test: Test C pre-/postemergence test; type: in vivo, Solanum ptycanthum
Summary of the method: as §1

wild oat = test: Test C pre-/postemergence test; type: in vivo, Avena fatua
Summary of the method: as §1

woolly cupgrass = test: Test C pre-/postemergence test; type: in vivo, Eriochloa villosa
Summary of the method: as §1

giant foxtail [4] = test: Test A pre-/postemergence greenhouse test; type: in vivo, Setaria faberi; settings: for Plant response rating, Foxtail, Giant: 0 to 100 scale where 0 is no effect and 100 is complete control; for Foxtail, Giant plant response rating: 0 to 100 scale
Summary of the method: as §2

[5] = test system: common (oilseed) sunflower; test: Test C pre-/postemergence test; type: in vivo, Helianthus annuus
Summary of the method: as §1

velvetleaf = test: Test C pre-/postemergence test; type: in vivo, Abutilon theophrasti
Summary of the method: as §1

Surinam grass = test: Test C pre-/postemergence test; type: in vivo, Brachiaria decumbens
Summary of the method: as §1

blackgrass = test: Test C pre-/postemergence test; type: in vivo, Alopecurus myosuroides
Summary of the method: as §1

downy brome = test: Test C pre-/postemergence test; type: in vivo, Bromus tectorum
Summary of the method: as §1

redroot pigweed = test: Test A pre-/postemergence greenhouse test; type: in vivo, Amaranthus retroflexus; settings: for Plant response rating, Pigweed: 0 to 100 scale where 0 is no effect and 100 is complete control; for Pigweed plant response rating: 0 to 100 scale
Summary of the method: as §2

[6] = 62 g ai/ha, Preemergence, scale 0 to 100
[7] = 125 g ai/ha, preemergence, scale 0 (no effect) to 100 (complete control)
[8] = Preemergence, 31 g ai/ha, scale 0 to 100 (0 no effect, 100 complete control)
[9] = preemergence, 250 g ai/ha, scale 0 (no effect) to 100 (complete control)
[10] = Postemergence, 500 g ai/ha, 0 is no effect, 100 is complete control
[11] = Preemergence, 125 g ai/ha, 0 no effect, 100 complete control

SMILES: CC(Oc1c(C[S+]([O-])c2ccc(Cl)c[n+]2[O-])c(C(F)(F)F)nn1C)C(F)(F)F (stereo not drawn) [Compound 87]
- Galium plant response rating (catchweed bedstraw; [6]): 80
- Galium plant response rating (catchweed bedstraw; [7]): 100
- Plant response rating, Galium (catchweed bedstraw; [8]): 70
- Galium plant response rating (catchweed bedstraw; [9]): 100
- Plant response rating, Morningglory (morningglory; Postemergence, 125 g ai/ha): 40
- Morningglory plant response rating (morningglory; [10]): 100
- Morningglory plant response rating (morningglory; [11]): 20
- Plant response rating, Morningglory (morningglory; Preemergence, 500 g ai/ha): 100
- Kochia plant response rating (kochia; [6]): 75
- Kochia plant response rating (kochia; [7]): 80
- Plant response rating, Kochia (kochia; [8]): 50
- Kochia plant response rating (kochia; [9]): 95
- Foxtail, Giant plant response rating (giant foxtail [1]; [6]): 95
- Foxtail, Giant plant response rating (giant foxtail [1]; [7]): 100
- Plant response rating, Foxtail, Giant (giant foxtail [1]; [8]): 85
- Foxtail, Giant plant response rating (giant foxtail [1]; [9]): 100
- Ragweed plant response rating (common ragweed; 125 g ai/ha): 70
- Ragweed plant response rating (common ragweed; 250 g ai/ha): 80
- Lambsquarters plant response rating (lambsquarters; [6]): 85
- Lambsquarters plant response rating (lambsquarters; [7]): 100
- Plant response rating, Lambsquarters (lambsquarters; [8]): 60
- Lambsquarters plant response rating (lambsquarters; [9]): 100
- Plant response rating, Wheat (wheat [2]; Postemergence, 125 g ai/ha, 0 to 100 scale where 0 is no effect and 100 is complete control): 60
- Wheat plant response rating (wheat [2]; [10]): 70
- Wheat plant response rating (wheat [2]; [11]): 70
- Wheat plant response rating (wheat [2]; Preemergence, 500 g ai/ha, 0 no effect, 100 complete control): 100
- Wheat plant response rating (wheat [3]; [6]): 60
- Wheat plant response rating (wheat [3]; [7]): 85
- Plant response rating, Wheat (wheat [3]; [8]): 30
- Wheat plant response rating (wheat [3]; [9]): 85
- Cocklebur plant response rating (cocklebur; [6]): 0
- Cocklebur plant response rating (cocklebur; [7]): 20
- Plant response rating, Cocklebur (cocklebur; [8]): 0
- Cocklebur plant response rating (cocklebur; [9]): 40
- Nightshade plant response rating (eastern black nightshade; [6]): 80
- Nightshade plant response rating (eastern black nightshade; [7]): 95
- Plant response rating, Nightshade (eastern black nightshade; [8]): 80
- Nightshade plant response rating (eastern black nightshade; [9]): 100
- Oat, Wild plant response rating (wild oat; [6]): 90
- Oat, Wild plant response rating (wild oat; [7]): 90
- Plant response rating, Oat, Wild (wild oat; [8]): 80
- Oat, Wild plant response rating (wild oat; [9]): 100
- Cupgrass, Woolly plant response rating (woolly cupgrass; [6]): 90
- Cupgrass, Woolly plant response rating (woolly cupgrass; [7]): 98
- Plant response rating, Cupgrass, Woolly (woolly cupgrass; [8]): 80
- Cupgrass, Woolly plant response rating (woolly cupgrass; [9]): 100
- Plant response rating, Foxtail, Giant (giant foxtail [4]; Postemergence, 125 g ai/ha): 90
- Foxtail, Giant plant response rating (giant foxtail [4]; [10]): 90
- Foxtail, Giant plant response rating (giant foxtail [4]; [11]): 90
- Plant response rating, Foxtail, Giant (giant foxtail [4]; Preemergence, 500 g ai/ha): 100
- Sunflower plant response rating [5, 6]: 50
- Sunflower plant response rating [5, 7]: 55
- Plant response rating, Sunflower [5, 8]: 40
- Sunflower plant response rating [5, 9]: 70
- Velvetleaf plant response rating (velvetleaf; [6]): 5
- Velvetleaf plant response rating (velvetleaf; [7]): 70
- Plant response rating, Velvetleaf (velvetleaf; [8]): 0
- Velvetleaf plant response rating (velvetleaf; [9]): 95
- Surinam Grass plant response rating (Surinam grass; [6]): 95
- Surinam Grass plant response rating (Surinam grass; [7]): 95
- Plant response rating, Surinam Grass (Surinam grass; [8]): 80
- Surinam Grass plant response rating (Surinam grass; [9]): 98
- Blackgrass plant response rating (blackgrass; [6]): 100
- Blackgrass plant response rating (blackgrass; [7]): 100
- Plant response rating, Blackgrass (blackgrass; [8]): 100
- Blackgrass plant response rating (blackgrass; [9]): 100
- Plant response rating, Bromegrass, Downy (downy brome; [8]): 80
- Bromegrass, Downy plant response rating (downy brome; [9]): 100
- Plant response rating, Pigweed (redroot pigweed; Postemergence, 125 g ai/ha): 50
- Pigweed plant response rating (redroot pigweed; [10]): 100
- Pigweed plant response rating (redroot pigweed; [11]): 90
- Plant response rating, Pigweed (redroot pigweed; Preemergence, 500 g ai/ha): 100
